For data set [1], the system named is Spontaneously Hypertensive Rats, middle cerebral artery occlusion (MCAo/stroke). Briefly: Collateral and control hemisphere perfusion by laser speckle contrast imaging after MCAo (Examples 4 and 5). It is filed as in vivo, rat. The following applies: from 25 minutes after MCAo for 45 minutes.
The test system is the same in data set [2]. The following applies: FIG. 3.
Protocol: Animal experiments were performed on male Spontaneously Hypertensive Rats (SHRs) weighing 300-350 g (Harlan, Bicester, UK). All animals were housed in a 12 h light/dark cycle and had ad libitum access to food and water prior to experiments.
Rats were anesthetized with 5% isoflurane in O2/N2 (1:3) and maintained with 1% to 2% isoflurane. Core temperature was maintained at 37° C. by a thermocouple rectal probe and warming plate (Harvard Apparatus, UK). Incision sites were shaved, cleaned, and injected subcutaneously with 2 mg/kg 0.05% Bupivacaine (Aspen, UK). A femoral arterial line was used for continuous arterial pressure monitoring.
The filament was advanced into the right external carotid artery stump and up the internal carotid artery to occlude the origin of the right MCA.
Laser Doppler flowmetry (LDF) (Oxford Optronix, Oxford, UK) was used to measure changes in cerebral blood flow (CBF) in both the MCA and collateral arterial territories using dual probes. The animal's head was secured with ear bars in a stereotaxic frame. […]
Prior to MCAo, the femoral vein was cannulated with 2-French silicon tubing. […] Collateral perfusion was measured as a change from pre-injection baseline.
Prior to MCAo, the femoral vein was cannulated with 2-French silicon tubing. […] Collateral perfusion was measured as a % change from pre-injection baseline.
Data set [3] relates to patients suffering ultra-acute stroke. The following applies: transdermal (i.e. systemic) delivery; cited from earlier work.
A short description of data set [4]: Mean arterial pressure through femoral artery catheter during infusion after MCAo (Examples 4 and 5). The class given is in vivo, rat. Conditions: from 25 minutes after MCAo for 45 minutes. Here is the method: Animals were randomized to receive intravenous infusion of saline (control, 0.3 ml/hr n=6) or infusion of free nitroglycerin (free-GTN, 0.25 μg/μl in saline, at 300 μl/h=4 μg/kg/min, n=6), commencing 25 minutes after MCAo.
Animals received intravenous infusion of free nitroglycerin (free-GTN, 2.5 μg/μl in saline, at 300 μl/h=40 μg/kg/min, n=4), commencing 25 minutes after MCAo. […] Vehicle control (saline) was the same control group used for 4 μg/kg/min studies (n=6).

Where [5] appears, read: i.v. infusion 4 μg/kg/min nitroglycerin.

Each structure is given as a SMILES string.

Turning to `O=[N+]([O-])OCC(CO[N+](=O)[O-])O[N+](=O)[O-]` [nitroglycerin], the “perfusion in the corresponding region of the control/contralateral hemisphere” value in data set [1] (setting [5]) was “no significant effect”; in data set [1] (i.v. infusion 40 μg/kg/min, FIG. 15) it was “no significant effect”. The “collateral blood perfusion (% change from pre-injection baseline)” value in data set [1] (i.v. infusion 4 μg/kg/min nitroglycerin, stroke hemisphere) is “did not change”; in data set [1] (i.v. infusion 40 μg/kg/min, FIG. 14), “did not change”. Besides, in data set [2] (free nitroglycerin not delivered using a SA-NT, Example 3b), the peak collateral perfusion entry is on record as “only a modest increase”. Moreover, in data set [2] (one SHR, i.v. bolus over 1 minute of 12.5, 25, 50 and 100 m, from 30 minutes after MCAo), the “collateral perfusion with increasing doses” value was “no additional increase”. For the same compound, the functional outcome in data set [3] is on record as “did not improve”. The “blood pressure (mean arterial pressure)” value was “dropped” in data set [4] (setting [5]) and “significantly dropped” in data set [4] (i.v. infusion 40 μg/kg/min, FIG. 16).

These data come from patent publication US20230355540A1, “STROKE TREATMENT” (Oxford University Innovation Limited, priority 2020, published 2023).
